# From US20240207302A1, “ANTIVIRAL COMPOUNDS, METHODS FOR THE MANUFACTURING OF COMPOUNDS, ANTIVIRAL PHARMACEUTICAL COMPOSITION, USE OF THE COMPOUNDS AND METHOD FOR THE ORAL TREATMENT OF CORONAVIRUS INFECTION AND RELATED DISEASES THEREOF” (priority 2021, published 2024)
# Legend:
# [1] = Pharmacokinetics of MB-905 in plasma of mice
# From the text: FIG. 8A to 8F. […] The number of animals is shown in each figure legends. The vertical lines represent the mean±the standard error deviation.
# All animals were maintained under SPF (Specific Pathogen Frec) animal conditions and were obtained from CIEnP facility, whose breeding colonies were purchased from Charles River Laboratories (USA). […] The samples collected from each animal and at each collection time were processed and analyzed individually. For the analysis of plasma and lung, UPLC-MS/MS equipment was used, whose system consists of a Xevo TQS mass spectrometer with a triple-quadrupole mass analyzer, from Waters. The mass spectrometer is coupled to a high-performance liquid chromatograph (Acquity H-Class). The acquisition and treatment of the data were performed with the MassLynx software. […] The calculation of bioavailability was performed using the following equation: F (%)=[(Intravenous dose×oral AUC)/(Oral dose×Intravenous AUC)]×100.
# [2] = tested on: SARS-COV-2; test: Combination with SARS-COV-2 nsp14 (exonuclease) inhibitors in Calu-3 cells, infectious virus titers; format: cell-based
# [3] = both, CD1, mouse, plasma, iv, 3 mg/kg
# [4] = both, CD1, mouse, plasma, po, 30 mg/kg
# [5] = Severe acute respiratory syndrome coronavirus 2, Calu-3, alone or in combination as labelled
compound,measurement,setting,value
"c1coc(CNc2ncnc3[nH]cnc23)c1 [MB-905, kinetin]",Cmax,[1]; [3],135 ng/mL
same,Vd,[1]; [3],19.4 L/kg
same,AUC(0-t),[1]; [4],366 ng·h/mL
same,Cmax,[1]; [4],570 ng/mL
same,half-life,[1]; [4],66 min
same,Cmax,"[1]; both, CD1, mouse, plasma, po, 550 mg/kg",1050 ng/mL
same,AUCall,"[1]; mice plasma, 3 mg/kg (i.v.)",66.41 ng·h/mL
same,CL,"[1]; mice plasma, 3 mg/kg (i.v.)",918.38 mL/min/kg
same,Cmax,"[1]; mice plasma, 3 mg/kg (i.v.)",155.16 ng/mL
same,F,"[1]; mice plasma, 3 mg/kg (i.v.)",100%
same,Ke,"[1]; mice plasma, 3 mg/kg (i.v.)",3.09 h⁻¹
same,T1/2,"[1]; mice plasma, 3 mg/kg (i.v.)",13.2 min
same,Tmax,"[1]; mice plasma, 3 mg/kg (i.v.)",4.98 min
same,Vz,"[1]; mice plasma, 3 mg/kg (i.v.)",19.04 L/kg
same,AUClast,"[1]; mice plasma, 3 mg/kg (i.v.), 3 mg/kg",55.58 ng·h/mL
same,CL,"[1]; mice plasma, 30 mg/kg (v.o.)",1060.15 mL/min/kg
same,Ke,"[1]; mice plasma, 30 mg/kg (v.o.)",0.62 h⁻¹
same,Vz,"[1]; mice plasma, 30 mg/kg (v.o.)",102.21 L/kg
same,F,"[1]; mice plasma, 30 mg/kg (v.o.), 30 mg/kg","53,5%"
same,Ke,"[1]; mice plasma, 550 mg/kg (v.o.)",0.25 h⁻¹
same,F,"[1]; mice plasma, 550 mg/kg (v.o.), 550 mg/kg",36.1%
same,EC50,[2]; [5],0.3 µM
same,EC90,[2]; [5],8 µM
same,effect of co-treatment with raltegravir or dolutegravir (iEXO) on inhibition of SARS-COV-2,"[2]; calu-3, drug 10 μM, raltegravir or dolutegravir 5 μM",synergistic
